Test results taken from patent US20090226494A1, “PATHOGEN - CONTROLLING PRODUCTS” (priority 2005, published 2009).

What was measured:
[1] = system: MRSA; experiment: Time kill curves in RPMI-1460 medium; format: cell-based, Staphylococcus aureus; conditions: 20 and 150 ppm
[2] = system: U937 cells; experiment: Sulforhodamine (SRB) cytotoxicity assay and microscopy; format: cell-based, human; conditions: 24 and 48 hours
From the text: (§1) The three copper-containing antimicrobial solutions—CuPC33, CuAL42 and CuWB50—were provided and each contained 30.43 g/L of copper ion. […] Two human cell lines were used for this example: HT-29, an intestinal epithelial cell line, and U937, a monocytic lymphoma. […] After examination by microscopy the cells were then fixed and stained to quantitatively determine cytotoxicity using a sulforhodamine (SRB) cytotoxicity assay, developed and validated at the National Cancer Institute. […] All test cultures were in triplicate.

[3] = system: HT-29 cells; experiment: as above; format: cell-based, human; conditions: 24 and 48 hours
From the text: as §1

[4] = system: ACCB; conditions: 40 and 150 ppm
[5] = system: A431 human skin cell line; experiment: Hand gel cytotoxicity, SRB assay; format: cell-based; conditions: 10% concentration (highest), 24 hours
Procedure: Methods: The human squamous epithelial cell line A431 was cultured in RPMI 1640 medium supplemented with 10% FCS, 2 g/L sodium bicarbonate and 2 mM L-glutamine (complete medium), in 75 cm^2 tissue culture flasks in a humidified incubator at 37° C. with a 5% CO2 in air atmosphere. For the cytotoxicity experiments, A431 cells were plated into the wells of flat-bottom 96 well plates at 5×10^4 cells per well in 200 μl of complete medium and allowed to grow to confluence. On the day of the experiment the depleted culture medium was aspirated and replaced with 100 μl of fresh complete medium. Samples of the hand gels were diluted in complete medium to double the concentrations shown in the Figure and 100 μl of each samples was added to the cells which were then cultured for a further 24 hours. After microscopic examination, the cells were fixed and stained to quantitatively determine cytotoxicity as described below. The sulforhodamine B (SRB) cytotoxicity assay was developed and validated at the National Cancer Institute. […] After washing twice with tap water the remaining stain was dissolved in 10 mM Tris base and the optical density (O.D.) of the wells was measured on a Dynatech Multiplate ELISA reader at 540 nm. The percent cell survival was calculated by dividing the test O.D. by control O.D. and multiplying by 100.

## O=S(=O)([O-])[O-].[Cu+2] [copper sulphate]
[1]
  activity in time kill curves: some activity but the bacteria recovered
[2]; 1-100 ppm, 5% or 25% FCS
  cytotoxicity: not significantly cytotoxic
[2]; 1000 ppm
  cytotoxicity: very toxic
[3]; 1-100 ppm, 5% or 25% FCS
  cytotoxicity: not significantly cytotoxic
[3]; 1000 ppm
  cytotoxicity: very toxic
[4]
  activity in time kill curves: little initial activity but the bacteria recovered

## CCO [ethanol]
[5]
  reduction of cell survival / cells killed: around 50%
